This experiment has as its system LPS-induced mice model. In words: Survival rate in LPS-induced mice model. It is filed as in vivo, C57BL/6J mice. The following applies: G6 positive control, 4 mg/kg/day ig; for survival rate: first dose 1 h before LPS. As to the method: Male SPF C57BL/6J mice (6-8 weeks old with body weight about 18-20 g) used in the study were purchased from Shanghai SLAC Laboratory Animal Co., Ltd. All the care and use of animals followed 3R principles and relevant regulations.
One hundred (100) male C57BL/6J mice (18-20 g) were used for the study. After acclimated for 7 days, the inflammation mice model, which is characterized by a severe acute systemic inflammation response was established by a single tail vein injection of LPS (30 mg/kg).
The model animals were randomly divided into 7 groups: vehicle control group (G0), test group 1 (G1)˜test group 5 (G5) and positive control group (G6), of which there were 15 mice/group in G0˜G5 and 10 mice/group in G6. Day 1 was defined as the day on which tail vein injection of LPS (30 mg/kg), treatment start from the same day of the model establishment (Day 1) through Day 5 for consecutive 5 days (120 h after LPS induction). Except for the first dose on Day1 which were set at 5 min before LPS injection, 5 min after LPS injection, 1 hour before LPS injection and 1 hour after LPS injection respectively (Detailed information see the administration schedule in table 1), each groups have the same time schedules for administration (8 h after LPS injection for the second dose and bid with once in the morning, once in the evening for the following days). Vehicle and API were administered by back subcutaneous injection, DEX was administered by gavage.
Graphpad 8.0 software was used for data analysis. Log-rank (Mantel-Cox) test was used for statistical analysis of the survival rate between each treatment group and vehicle control group.

Marks after values point to notes of the source that are not given here.

As to `C[C@@H]1C[C@H]2[C@@H]3CCC4=CC(=O)C=C[C@]4(C)[C@@]3(F)[C@@H](O)C[C@]2(C)[C@@]1(O)C(=O)CO` [DEX, Dexamethasone], the survival rate reads like this: (8 h) 100.0%; (16 h) 100.0%; (24 h) 100.0%; (48 h) 90.0%; (72 h) 90.0%; (120 h) 90.0%**. For the same compound, the “mice died until 72 h after LPS injection” value (10 mice/group) stood at 1 mouse.

The values above are taken from patent US20250064888A1, “COMPOSITIONS AND METHODS FOR TREATING CYTOKINE STORM” (SHENZHEN HIGHTIDE BIOPHARMACEUTICAL LTD., priority 2022, published 2025).
